Measured values taken from paper PMC8222713, “Variation of Two S3b Residues in KV4.1–4.3 Channels Underlies Their Different Modulations by Spider Toxin κ-LhTx-1” (Frontiers in Pharmacology, 2021).
Where a SMILES comes first, the peptide text is derived from it. Bridges are numbered along the chain shown (N, C = ends).

Experiments:
KV4.3/N278K mutant = assay: Whole-cell patch clamp, KV4.3/N278K in CHO-K1 cells; assay type: cell-based, rat
Method: (§1) The cDNA of hKV1.1, hKV1.3, rKV1.4, hKV1.5, rKV2.1, hKV3.1–3.4, mKV4.1, rKV4.2, and rKV4.3 were subcloned in the eukaryotic expression vector pCDNA3.1 or pCMV-blank. Channel mutants were made by a site-directed mutation method. Briefly, a pair of oppositely directed primers with 15 bp overlap at their 5′ ends and the designed mutation site were used to amplify the parental channel plasmid, then the PCR mix was treated with DpnI to remove the template. 10 μL digestion mix was directly used to transform 100 μL DH5α chemical competent cells. The correct mutation made by this procedure was finally confirmed by DNA sequencing. CHO-K1 cells (ATCC® CCL-61™) were grown in DMEM-F12 mixed medium (1:1) supplemented with 10% FBS and maintained in standard conditions (saturated humidity, 37°C, 5% CO2). Channel plasmid was co-transfected with pEGFP-N1 (encodes the green fluoresence protein) into CHO-K1 cells using lipofectamine 2000 following the manufacturer’s instructions. 4–6 h after transfection, cells were seeded onto poly-lysine (PLL) coated coverslips, and 24–36 h later, transfected cells were ready for patch-clamp analysis. It should be note that KV4.2 and its mutants were also co-expressed with hKChIP1 to promote their functional expressions.
(§2) Whole-cell patch clamp recording was performed in an electrophysiology platform equipped with MultiClamp 700B amplifier and Axon Digidata 1550 AD/DA convertor (Axon Instruments, Irvine, CA, United States). Data were acquired using the pClamp software (Axon Instruments, Irvine, CA, United States). All experiments were performed at room temperature. The bath solution contains (in mM): 140 NaCl, 5 KCl, 1 MgCl2, 2 CaCl2, 10 glucose, and 10 HEPES (pH = 7.3). The pipette solution contains (in mM): 140 KCl, 2.5 MgCl2, 11 EGTA, and 10 HEPES (pH = 7.3). Series resistance was kept below 10 MΩ and compensated to 80%. The concentration–response curves were fitted by a Hill logistic equation to estimate the potency (IC50) of the toxin. The whole cell conductance (G) at each depolarizing voltage (V) was determined using the equation: G = I/(V−Vrev), where I and Vrev represents the current amplitude and the reversal potential, respectively. In the present study, Vrev for K^+ current is determined to be −85.61 mV using the Nernst equation. G-V curve was obtained by plotting the normalized G as a function of V and fitted by the Boltzmann equation: y = 1/{1 + exp [(Va−V)/K]}, in which Va, V, and K represents half-maximum activation voltage, test voltage and slope factor, respectively. The steady-state fast inactivation of KV4 channels was measured using a classical two-pulses protocol: cell was held at −120 mV, and a train of conditional voltages (−120–40 mV, in 10 mV increment, 1,000 ms) were applied to induce channel inactivation, followed by a +60 mV test pulse (300 ms) to assess the proportion of non-inactivated channels; the sweep interval was set to 10 s. Currents at the test pulse (I) were normalized to the maximum value (Imax) and plotted as a function of the conditional voltage (V), the curve was fitted by the Boltzmann equation: I/Imax = A + (1−A)/{1 + exp [(V−Vh)/K]}, where Vh is the half-maximum inactivation voltage, A represents the minimum channel availability, and K is the slope factor. Gating currents of KV4.1–4.3 channels were measured as previously reported ([Tilley et al., 2019]). Briefly, the ionic pore currents were abolished by replacing K^+ with NMDG^+ in the pipette solution, and 10 µM Cs^+ was present in the bath solution to occupy the selectivity filter of KV channels to prevent decay of the gating currents during recording.
(§3) Data were presented as MEAN ± SEM, n represents the number of separate experimental cells. Data were analyzed using the software Clampfit 10.5 (Axon Instruments, Irvine, CA, United States), Graphpad Prism 5.01 (GraphPad Software, La Jolla, CA, United States) and Excel 2010 (Microsoft Corporation, Redmond, WA, United States). […]

[1] = test system: KV4.3-TN/PK (KV4.3/277PK, T277P/N278K double mutant); assay: Whole-cell patch clamp, KV4.3-TN/PK (KV4.3/277PK) in CHO-K1 cells; assay type: cell-based, rat
Method: as §1, §2, §3

[2] = test system: KV4.3/275FVPK chimeric channel; assay: Whole-cell patch clamp, KV4.3/275FVPK chimera in CHO-K1 cells; assay type: cell-based, rat; settings: mean ± SEM
Method: as §1, §2, §3

KV4.1/279LF/AA mutant = assay: Whole-cell patch clamp, KV4.1/279LF/AA in CHO-K1 cells; assay type: cell-based, mouse; settings: KV4.1/279LF/AA at Va depolarizing voltage, n = 5–7
Method: (§4) The cDNA of hKV1.1, hKV1.3, rKV1.4, hKV1.5, rKV2.1, hKV3.1–3.4, mKV4.1, rKV4.2, and rKV4.3 were subcloned in the eukaryotic expression vector pCDNA3.1 or pCMV-blank. Channel mutants were made by a site-directed mutation method. Briefly, a pair of oppositely directed primers with 15 bp overlap at their 5′ ends and the designed mutation site were used to amplify the parental channel plasmid, then the PCR mix was treated with DpnI to remove the template. 10 μL digestion mix was directly used to transform 100 μL DH5α chemical competent cells. The correct mutation made by this procedure was finally confirmed by DNA sequencing. […] 4–6 h after transfection, cells were seeded onto poly-lysine (PLL) coated coverslips, and 24–36 h later, transfected cells were ready for patch-clamp analysis. […]
(§5) Whole-cell patch clamp recording was performed in an electrophysiology platform equipped with MultiClamp 700B amplifier and Axon Digidata 1550 AD/DA convertor (Axon Instruments, Irvine, CA, United States). […] The whole cell conductance (G) at each depolarizing voltage (V) was determined using the equation: G = I/(V−Vrev), where I and Vrev represents the current amplitude and the reversal potential, respectively. In the present study, Vrev for K^+ current is determined to be −85.61 mV using the Nernst equation. […] Gating currents of KV4.1–4.3 channels were measured as previously reported ([Tilley et al., 2019]). […]

KV4.2/277LV/AA mutant = assay: Whole-cell patch clamp, KV4.2/277LV/AA (with hKChIP1) in CHO-K1 cells; assay type: cell-based, rat; settings: KV4.2/277LV/AA at Va depolarizing voltage, n = 5–7
Method: as §4, §5

KV4.3/274LV/AA mutant = assay: Whole-cell patch clamp, KV4.3/274LV/AA in CHO-K1 cells; assay type: cell-based, rat; settings: KV4.3/274LV/AA at Va depolarizing voltage, n = 5–7
Method: as §4, §5

KV4.1/F280V mutant = assay: Whole-cell patch clamp, KV4.1/F280V in CHO-K1 cells; assay type: cell-based, mouse; settings: +30 mV, n = 5
Method: as §4, §5

KV4.1/V281M mutant = assay: Whole-cell patch clamp, KV4.1/V281M in CHO-K1 cells; assay type: cell-based, mouse; settings: +30 mV, n = 5
Method: as §4, §5

KV1.1 channel (hKV1.1) = assay: Whole-cell patch clamp selectivity, KV1.1; assay type: cell-based, human; settings: KV1.1, 10 µM, n = 5
Method: as §4, §5

KV1.4 channel (rKV1.4) = assay: Whole-cell patch clamp selectivity, KV1.4; assay type: cell-based, rat; settings: KV1.4, 10 µM, n = 5
Method: as §4, §5

KV1.5 channel (hKV1.5) = assay: Whole-cell patch clamp selectivity, KV1.5; assay type: cell-based, human; settings: KV1.5, 10 µM, n = 5
Method: as §4, §5

KV3.3 channel (hKV3.3) = assay: Whole-cell patch clamp selectivity, KV3.3; assay type: cell-based, human; settings: KV3.3, 10 µM, n = 5
Method: as §4, §5

[3] = 10 μM κ-LhTx-1, G-V, mean ± SEM, n = 6
[4] = 10 μM κ-LhTx-1, two-pulse protocol, mean ± SEM, n = 5
[5] = 10 μM κ-LhTx-1, KV4.3-TN/PK, G-V, mean ± SEM, n = 5
[6] = 10 μM κ-LhTx-1, KV4.3-TN/PK, two-pulse protocol, mean ± SEM, n = 5
[7] = 10 μM κ-LhTx-1, two-pulse protocol, n = 5

Compound: CC[C@H](C)[C@@H]1NC(=O)[C@H](CCC(N)=O)NC(=O)[C@@H]2CSSC[C@@H]3NC(=O)[C@H](CC(C)C)NC(=O)[C@H](CC(N)=O)NC(=O)[C@H](CCSC)NC(=O)[C@H](Cc4c[nH]c5ccccc45)NC(=O)[C@H](CO)NC(=O)[C@H](C)NC(=O)[C@@H](NC(=O)[C@H](CCC(=O)O)NC(=O)[C@H](CCC(N)=O)NC(=O)[C@H](C)NC(=O)[C@H](CC(=O)O)NC(=O)[C@@H](N)CCC(=O)O)CSSC[C@H](NC(=O)[C@H](CSSC[C@@H](C(=O)N[C@@H](CCCCN)C(=O)N[C@@H](Cc4ccc(O)cc4)C(=O)N[C@@H](CCCCN)C(=O)N[C@@H](CC(C)C)C(N)=O)NC(=O)[C@H](Cc4c[nH]c5ccccc45)NC1=O)NC(=O)[C@H](CCCCN)NC(=O)[C@H](CCCCN)NC(=O)[C@H](CCC(=O)O)NC(=O)CNC3=O)C(=O)N[C@@H](CCC(=O)O)C(=O)NCC(=O)N[C@@H](Cc1ccc(O)cc1)C(=O)N[C@@H](C(C)C)C(=O)N2 [κ-LhTx-1] (H-EDAQECASWMNLCGEKKCCEGYVCQIWCKYKL-NH2; disulfide 6-19, 13-24, 18-28 (inferred); N-terminus and C-terminus assumed)
- Va (steady-state activation) (KV4.3/N278K mutant; [3]): 68.62 ± 1.73 mV
- k, slope factor (steady-state activation) (KV4.3/N278K mutant; [3]): 18.03 ± 0.87 mV
- Vh (steady-state inactivation) (KV4.3/N278K mutant; [4]): -17.01 ± 1.57 mV
- k, slope factor (steady-state inactivation) (KV4.3/N278K mutant; [4]): 10.75 ± 0.63 mV
- voltage-dependence of inhibition vs parental KV4.3 (KV4.3/N278K mutant; 10 μM, still greater than in KV4.1): much less voltage-dependence
- ∆Va (steady-state activation) (KV4.3/N278K mutant; Va shift by 10 μM κ-LhTx-1 vs control, mean ± SEM): 59.97 ± 2.64 mV
- ∆Vh (steady-state inactivation) (KV4.3/N278K mutant; Vh shift by 10 μM κ-LhTx-1 vs control, mean ± SEM): 30.24 ± 1.80 mV
- Va (steady-state activation) [1, 5]: 81.96 ± 2.27 mV
- k, slope factor (steady-state activation) [1, 5]: 15.09 ± 1.14 mV
- Vh (steady-state inactivation) [1, 6]: -25.43 ± 2.92 mV
- k, slope factor (steady-state inactivation) [1, 6]: 15.31 ± 2.02 mV
- ∆Va and inhi%(min) vs KV4.1 ([1]; KV4.3/277PK, 10 μM): not significantly different from those in KV4.1
- ∆Va (steady-state activation) ([1]; Va shift by 10 μM κ-LhTx-1 vs control, KV4.3-TN/PK, mean ± SEM): 87.43 ± 2.99 mV
- ∆Vh (steady-state inactivation) ([1]; Vh shift by 10 μM κ-LhTx-1 vs control, KV4.3-TN/PK, mean ± SEM): 26.29 ± 3.52 mV
- Va (steady-state activation) ([2]; 10 μM κ-LhTx-1, G-V, n = 5): 93.50 ± 2.00 mV
- k, slope factor (steady-state activation) ([2]; 10 μM κ-LhTx-1, G-V, n = 5): 17.66 ± 1.15 mV
- Vh (steady-state inactivation) [2, 7]: -9.28 ± 5.57 mV
- k, slope factor (steady-state inactivation) [2, 7]: 16.78 ± 3.11 mV
- ∆Va (steady-state activation) ([2]; Va shift by 10 μM κ-LhTx-1 vs control): 94.81 ± 2.45 mV
- ∆Vh (steady-state inactivation) ([2]; Vh shift by 10 μM κ-LhTx-1 vs control): 43.34 ± 5.46 mV
- inhi%(min) ([2]; inhibition ratio at +100 mV, 10 μM): 65.91 ± 3.36%
- effect of mutation on toxin inhibition (KV4.1/279LF/AA mutant): profoundly weakened the effect
- effect of mutation on toxin inhibition (KV4.2/277LV/AA mutant): profoundly weakened the effect
- effect of mutation on toxin inhibition (KV4.3/274LV/AA mutant): profoundly weakened the effect
- potency vs wild-type KV4.1 (KV4.1/F280V mutant): only slightly reduced κ-LhTx-1 potency
- potency vs wild-type KV4.1 (KV4.1/V281M mutant): only slightly reduced κ-LhTx-1 potency
- effect on currents (KV1.1 channel (hKV1.1)): did not remarkably affect the currents
- effect on currents (KV1.4 channel (rKV1.4)): did not remarkably affect the currents
- effect on currents (KV1.5 channel (hKV1.5)): did not remarkably affect the currents
- effect on currents (KV3.3 channel (hKV3.3)): did not remarkably affect the currents
